This is an account of results in patent US5776940A, “Phenylxanthine derivatives” (Glaxo Wellcome Inc., priority 1994, dated 1998).

What is called IC50 is the concentration needed to halve the response being measured.

Assay [1] addresses T1, lyso-PAF: acetyl-CoA acetyltransferase (Rattus norvegicus, UniProt P0C1Q3).
T1 construct: measured in a lysate of rat pleural neutrophils; endogenous in cells
T1 sequence (P0C1Q3 1-544): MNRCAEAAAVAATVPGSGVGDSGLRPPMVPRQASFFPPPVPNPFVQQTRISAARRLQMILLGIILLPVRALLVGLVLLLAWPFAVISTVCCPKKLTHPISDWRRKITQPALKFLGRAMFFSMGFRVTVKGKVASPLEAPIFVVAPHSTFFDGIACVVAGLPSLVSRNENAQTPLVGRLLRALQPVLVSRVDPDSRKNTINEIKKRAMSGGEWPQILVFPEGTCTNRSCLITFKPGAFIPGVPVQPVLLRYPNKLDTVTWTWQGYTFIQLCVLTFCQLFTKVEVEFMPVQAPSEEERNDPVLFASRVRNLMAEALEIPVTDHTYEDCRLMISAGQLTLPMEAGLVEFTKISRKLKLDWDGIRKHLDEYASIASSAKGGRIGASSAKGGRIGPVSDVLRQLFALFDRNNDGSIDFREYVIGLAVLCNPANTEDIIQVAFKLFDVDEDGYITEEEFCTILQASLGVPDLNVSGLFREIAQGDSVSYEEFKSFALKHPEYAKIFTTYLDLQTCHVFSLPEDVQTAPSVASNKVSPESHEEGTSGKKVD
Nature of the assay: Lyso-PAF: Acetyl-CoA Acetyltransferase [Synthesis of Platelet-Activating Factor (PAF)] in a lysate of rat pleural neutrophils. It is filed as biochemical, rat (male Harlan Sprague-Dawley). Particulars: lysate of activated rat pleural neutrophils, pH 6.9, 37° C., 10 min; read-out: Enzymes IC50 PAF. As to the method:
Compounds of the invention were assayed for inhibiting activity in arachidonate metabolism and PAF synthesis as follows.
B) Lyso-PAF: Acetyl-CoA Acetyltransferase [Synthesis of Platelet-ActivatingFactor (PAF)]
Synthesis of PAF (platelet-activating factor) was measured in a lysate of rat pleural neutrophils, as described by White and Faison, Prostaglandins,1988; 35: p939-44. Pleural exudate cells, harvested from male Harlan Sprague-Dawley rats (150±20 g) 3 hr after injection of 0.5 mg carrageenan, were centrifuged at 200 g for 10 min at 4° C., washed, and resuspended at approximately 17 million cells/mi in a buffer consisting of 50 mM potassium phosphate, 144 mM NaCl, 6 mM KCl, 5 mM glucose, 1 mM MgCl2, 1.3 mM CaCl2, pH 7.4. Resuspended cells were incubated with calcium ionophore A23187 (1 μM) for 5 min at 37° C. to activate the acetyltransferase and then centrifuged at 755 g for 2 min at 4° C. Pellets were resuspended in cold distilled water and sonicated in a 50 Hz ultrasonic bath. Portions (250 μl) of the resulting lysate were mixed with buffer, test compound, and substrates to give 36 mM Tris-Cl, pH 6.9, 12 μM lyso-PAF, and 2.3 μM [^14 C]acetyl-CoA (0.06 μCi) in a total volume of 500 μl. Blank assays contained nonactivated neutrophils and no added lyso-PAF. The compound being tested was added prior to substrates. After incubation at 37° C. for 10 min. 0.68 ml of 2N HCl and 2.53 ml of 1:1 chloroform/methanol were added to each tube to extract labeled PAF. Each tightly-covered tube was briefly sonicated in a Branson 50 Hz bath, vortexed for 20 sec, and centrifuged at 160 g for 5 min to separate solvent phases. A 0.90 ml aliquot of the lower (organic)phase was pipetted into a glass scintillation vial, dried under nitrogen using an N-EVAP apparatus (Organomation Associates), and counted using scintillation techniques.

For assay [2], the system named is antigen-induced airway eosinophilia. The assay can be described thus: Inhibition of antigen-induced airway eosinophilia in the guinea pig. It is filed as in vivo, guinea pig (male Hartley). Particulars: 24 h after antigen challenge. The procedure: 2) Compounds of the invention were assayed for inhibition of Antigen-Induced airway eosinophilia as follows:
Male Hartley guinea pigs [Crl:(HA)Br, Charles River] weighing 200-300 g were sensitized to ovalbumin (OA) by intraperitioneal (i.p.) injections (in 1 ml 0.9% saline) of 20 mg followed by 1 mg 2 or 3 days later. After four to twelve weeks, the animals were treated with the antihistamine, pyrilamine (1 mg/kg i.p), 1 hour prior to exposure (17.8 l chamber) and for 10 min to an aerosol of OA (0.5% w/v solution in 0.9% sterile saline) generated from a jet nebulizer (Devilbiss Model 40; flow rate=8.51/min). […] Twenty-four hours after antigen challenge, each animal was anesthetized with sodium pentobarbital (55-75 mg/kg i.p.), the trachea cannulated and the lungs lavaged with 4×10 ml aliquots of Hanks' Balanced Salt Solution warmed to 37° C. The aliquots were pooled in 40 ml polycarbonate centrifuge tubes, centrifuged (200 g for 10 min at 4° C.) and the cell pellet resuspended in HEPES buffered solution (2 ml). Fifty μl of the suspension were added to 10 ml of Isoton Diluent (Fisher Scientific) containing three drops of lysing agent and the cells counted with a Coulter Counter (Model ZB1). Four μl of the cell suspension were spread on a 3×1 inch glass microscope slide, allowed to dry and the cells stained with DIFF-QUIK™ (Fisher Scientific). Two slides were prepared for each animal. Differential cell counts were made (100× magnification) from a minimum of four fields on 100 cells per slide (total cells counted per animal=200), using standard morphological criteria to classic cells into eosinophils, neutrophils, lymphocytes and macrophages. The activity of the test compound was calculated by comparing the mean proportions of eosinophils in the lavage fluid of compound-treated animals with controls (vehicle-treated animals) and expressing as percent inhibition.

For `O=C(O)/C=C/c1ccc(-c2nc3c(=O)n(CC4CCCCC4)c(=O)n(CC4CCCCC4)c3[nH]2)cc1` [Example 1, (E)-4-[1,3 Bis(cyclohexylmethyl)-1,2,3,6-tetrahydro-2,6-dioxo-9H-purin-8-yl]cinnamic Acid], the IC50 in assay [1] turned out to be 2.5 µM. Further, the “Inhibition of Airway Eosinophilia (% inhibition)” value (from here on “Inhibition … (% inhibition)”) in assay [2] (dose 5 mg/kg ip) was 50%.
On to `O=C(O)/C=C/c1ccc(-c2nc3c(=O)n(CC4CCCC4)c(=O)n(CC4CCCC4)c3[nH]2)cc1` [Example 4, (E)-4-[1,3 Bis(cyclopentylmethyl)-1,2,3,6-tetrahydro-2,6-dioxo-9H-purin-8-yl]cinnamicAcid], for which the IC50 in assay [1] worked out at 15 µM. Moreover, the “Inhibition … (% inhibition)” value in assay [2] (dose 10 mg/kg ip) worked out at 46%.
Regarding `O=C(O)/C=C/c1ccc(-c2nc3c(=O)n(CC4CCCCCC4)c(=O)n(CC4CCCCCC4)c3[nH]2)cc1` [Example 7, (E)-4-[1,3 Bis(cycloheptylmethyl)-1,2,3,6-tetrahydro-2,6-dioxo-9H-purin-8-yl]cinnamicAcid], the IC50 in assay [1] was found to be 12 µM. The “Inhibition … (% inhibition)” value in assay [2] (dose 6.8 mg/kg ip) is 50%.
